Reference: patent EP0238060B1, “Cephalosporin derivatives, processes for their preparation and antibacterial agents” (Banyu Pharmaceutical Co., Ltd., priority 1986, dated 1987)
Values after ≈ are worked out from the molar mass of the structure shown. Like-named read-outs stand apart in the source and are kept apart here.

Columns and labels:
Assay in all cases: In vitro antibacterial activity, agar plate dilution method (MIC)
Ps.cepacia 23 = type: cell-based, Pseudomonas cepacia; conditions: Burkholderia cepacia; Ps.cepacia 23; Mueller Hinton agar, inoculum 10⁶ CFU/ml, 37°C, 16 hours; read-out: Minimum Inhibitory Concentration (MIC: µg/ml)
Description: (§1) The in vitro antibacterial activities of the compounds of the present invention against various microorganisms, were measured by the following agar plate dilution method. One platinum loopfull of each test microorganism incubated overnight in Mueller Hinton broth, was inoculated to Mueller Hinton agar (inoculum size: l0⁶ CFU/ml). Such culture media containing various antibiotics in various concentrations were prepared. After incubation at 37°C for l6 hours, the minimum inhibitory concentrations (MIC: µg/ml) were measured. As comparative compounds, Cefotaxime, Ceftazidime and the compounds of Reference Examples l to 4 were employed.

S.marcescens IAM 1184 = type: cell-based; conditions: Serratia marcescens, read-out: Minimum Inhibitory Concentration (MIC: µg/ml)
Description: as §1

P.vulgaris No. 33 = type: cell-based; conditions: Proteus vulgaris, read-out: Minimum Inhibitory Concentration (MIC: µg/ml)
Description: as §1

E.coli CSH(RE45) = type: cell-based; conditions: Escherichia coli, 16 h, read-out: Minimum Inhibitory Concentration (MIC: µg/ml)
Description: as §1

S.aureus BB5703 = type: cell-based; conditions: Staphylococcus aureus; S.aureus BB5703; Mueller Hinton agar, inoculum 10⁶ CFU/ml, 37°C, 16 hours; read-out: Minimum Inhibitory Concentration (MIC: µg/ml)
Description: as §1

E.cloacae 963 = type: cell-based; conditions: read-out: Minimum Inhibitory Concentration (MIC: µg/ml)
Description: as §1

S.aureus 209P NIHJ-JC1 = type: cell-based; conditions: Staphylococcus aureus; S.aureus 209P NIHJ-JC1; Mueller Hinton agar, inoculum 10⁶ CFU/ml, 37°C, 16 hours; read-out: Minimum Inhibitory Concentration (MIC: µg/ml)
Description: as §1

A.calcoaceticus No. 4 = type: cell-based; conditions: Acinetobacter calcoaceticus; A.calcoaceticus No. 4; Mueller Hinton agar, inoculum 10⁶ CFU/ml, 37°C, 16 hours; read-out: Minimum Inhibitory Concentration (MIC: µg/ml)
Description: as §1

K.pneumoniae No. 42 = type: cell-based; conditions: Klebsiella pneumoniae; K.pneumoniae No. 42 (β-Lactamase-producing strain); Mueller Hinton agar, inoculum 10⁶ CFU/ml, 37°C, 16 hours; read-out: Minimum Inhibitory Concentration (MIC: µg/ml)
Description: as §1

C.freundii GN346/16 = type: cell-based; conditions: Citrobacter freundii; C.freundii GN346/16; Mueller Hinton agar, inoculum 10⁶ CFU/ml, 37°C, 16 hours; read-out: Minimum Inhibitory Concentration (MIC: µg/ml)
Description: as §1

S.epidermidis IAM12012 = type: cell-based; conditions: Staphylococcus epidermidis; S.epidermidis IAM12012; Mueller Hinton agar, inoculum 10⁶ CFU/ml, 37°C, 16 hours; read-out: Minimum Inhibitory Concentration (MIC: µg/ml)
Description: as §1

E.coli NIHJ JC2 = type: cell-based; conditions: Escherichia coli, NIHJJC2; E.coli NIHJ JC2; Mueller Hinton agar, inoculum 10⁶ CFU/ml, 37°C, 16 hours; read-out: Minimum Inhibitory Concentration (MIC: µg/ml)
Description: as §1

P.vulgaris HX-19 = type: cell-based; conditions: Proteus vulgaris, HX19; P.vulgaris HX-19; Mueller Hinton agar, inoculum 10⁶ CFU/ml, 37°C, 16 hours; read-out: Minimum Inhibitory Concentration (MIC: µg/ml)
Description: as §1

K.pneumoniae PCI-602 = type: cell-based; conditions: Klebsiella pneumoniae, PCI602; K.pneumoniae PCI-602; Mueller Hinton agar, inoculum 10⁶ CFU/ml, 37°C, 16 hours; read-out: Minimum Inhibitory Concentration (MIC: µg/ml)
Description: as §1

S.marcescens No. 16-2 = type: cell-based; conditions: Serratia marcescens, NO.162; S.marcescens No. 16-2 (β-Lactamase-producing strain); Mueller Hinton agar, inoculum 10⁶ CFU/ml, 37°C, 16 hours; read-out: Minimum Inhibitory Concentration (MIC: µg/ml)
Description: as §1

E.coli GN5482 = type: cell-based; conditions: Escherichia coli; E.coli GN5482 (β-Lactamase-producing strain); Mueller Hinton agar, inoculum 10⁶ CFU/ml, 37°C, 16 hours; read-out: Minimum Inhibitory Concentration (MIC: µg/ml)
Description: as §1

E.cloacae Nek 39 = type: cell-based; conditions: Enterobacter cloacae, NEK39; E.cloacae Nek 39 (β-Lactamase-producing strain); Mueller Hinton agar, inoculum 10⁶ CFU/ml, 37°C, 16 hours; read-out: Minimum Inhibitory Concentration (MIC: µg/ml)
Description: as §1

M.morganii GN5407 = type: cell-based; conditions: Morganella morganii; M.morganii GN5407 (β-Lactamase-producing strain); Mueller Hinton agar, inoculum 10⁶ CFU/ml, 37°C, 16 hours; read-out: Minimum Inhibitory Concentration (MIC: µg/ml)
Description: as §1

Ps.aeruginosa AKR17 = type: cell-based; conditions: Pseudomonas aeruginosa; Ps.aeruginosa AKR17; Mueller Hinton agar, inoculum 10⁶ CFU/ml, 37°C, 16 hours; read-out: Minimum Inhibitory Concentration (MIC: µg/ml)
Description: as §1

Ps.aeruginosa IFO3445 = type: cell-based; conditions: Pseudomonas aeruginosa; Ps.aeruginosa IFO3445; Mueller Hinton agar, inoculum 10⁶ CFU/ml, 37°C, 16 hours; read-out: Minimum Inhibitory Concentration (MIC: µg/ml)
Description: as §1

K.oxytoca GN10650 = type: cell-based; conditions: Klebsiella oxytoca; K.oxytoca GN10650 (β-Lactamase-producing strain); Mueller Hinton agar, inoculum 10⁶ CFU/ml, 37°C, 16 hours; read-out: Minimum Inhibitory Concentration (MIC: µg/ml)
Description: as §1

S.aureus JS1 = type: cell-based; conditions: Staphylococcus aureus; S.aureus JS1 (β-Lactamase-producing strain); Mueller Hinton agar, inoculum 10⁶ CFU/ml, 37°C, 16 hours; read-out: Minimum Inhibitory Concentration (MIC: µg/ml)
Description: as §1

C.freundii GN346 = type: cell-based; conditions: Citrobacter freundii; C.freundii GN346 (β-Lactamase-producing strain); Mueller Hinton agar, inoculum 10⁶ CFU/ml, 37°C, 16 hours; read-out: Minimum Inhibitory Concentration (MIC: µg/ml)
Description: as §1

E.coli CSH2 (RK1) = type: cell-based; conditions: Escherichia coli, 16 h, read-out: Minimum Inhibitory Concentration (MIC: µg/ml)
Description: as §1

M.luteus ATCC9341 = type: cell-based; conditions: Micrococcus luteus; M.luteus ATCC9341; Mueller Hinton agar, inoculum 10⁶ CFU/ml, 37°C, 16 hours; read-out: Minimum Inhibitory Concentration (MIC: µg/ml)
Description: as §1

Ps.aeruginosa AK 109 = type: cell-based; conditions: Pseudomonas aeruginosa, AK109; Ps.aeruginosa AK 109; Mueller Hinton agar, inoculum 10⁶ CFU/ml, 37°C, 16 hours; read-out: Minimum Inhibitory Concentration (MIC: µg/ml)
Description: as §1

Ps.maltophilia GN 12873 = type: cell-based, Pseudomonas maltophilia; conditions: Stenotrophomonas maltophilia, GN12873; Ps.maltophilia GN 12873 (β-Lactamase-producing strain); Mueller Hinton agar, inoculum 10⁶ CFU/ml, 37°C, 16 hours; read-out: Minimum Inhibitory Concentration (MIC: µg/ml)
Description: as §1

SMILES	MIC (Ps.cepacia 23) [µg/mL]	MIC (E.coli CSH(RE45)) [µg/mL]	MIC (S.aureus BB5703) [µg/mL]	MIC (S.aureus 209P NIHJ-JC1) [µg/mL]	MIC (A.calcoaceticus No. 4) [µg/mL]	MIC (K.pneumoniae No. 42) [µg/mL]	MIC (C.freundii GN346/16) [µg/mL]	MIC (S.epidermidis IAM12012) [µg/mL]	MIC (E.coli NIHJ JC2) [µg/mL]	MIC (P.vulgaris HX-19) [µg/mL]	MIC (K.pneumoniae PCI-602) [µg/mL]	MIC (S.marcescens No. 16-2) [µg/mL]	MIC (E.coli GN5482) [µg/mL]	MIC (E.cloacae Nek 39) [µg/mL]	MIC (M.morganii GN5407) [µg/mL]	MIC (Ps.aeruginosa AKR17) [µg/mL]	MIC (Ps.aeruginosa IFO3445) [µg/mL]	MIC (K.oxytoca GN10650) [µg/mL]	MIC (S.aureus JS1) [µg/mL]	MIC (C.freundii GN346) [µg/mL]	other results
C=C(O/N=C(\C(=O)NC1C(=O)N2C(C(=O)[O-])=C(C[n+]3ccc4cc(O)c(O)cc4c3)CSC12)c1csc(N)n1)C(=O)O (stereo not drawn) [Ex. 6, 7-[2-(2-aminothiazol-4-yl)-2-(l-carboxy-l-vinyloxyimino)acetamido]-3-(6,7-dihydroxy-2-isoquinolinio)methyl-3-cephem-4-carboxylate]	0.025 (≈ 0.0408 µM)	0.025 (≈ 0.0408 µM)	50 (≈ 81.6 µM)	25 (≈ 40.8 µM)	0.2 (≈ 0.326 µM)	0.025 (≈ 0.0408 µM)	1.56 (≈ 2.55 µM)	12.5 (≈ 20.4 µM)	0.1 (≈ 0.163 µM)	< 0.006	< 0.006	0.1 (≈ 0.163 µM)	0.2 (≈ 0.326 µM)	0.025 (≈ 0.0408 µM)	0.05 (≈ 0.0816 µM)	1.56 (≈ 2.55 µM)	1.56 (≈ 2.55 µM)	0.05 (≈ 0.0816 µM)	100 (≈ 163 µM)	50 (≈ 81.6 µM)	MIC (S.marcescens IAM 1184; IAM1184, 16 h): 0.0125 µg/mL (≈ 0.0204 µM); MIC (P.vulgaris No. 33; NO.33, 16 h): 0.0125 µg/mL (≈ 0.0204 µM); MIC (E.cloacae 963; Enterobacter cloacae, 963, 16 h): 0.0125 µg/mL (≈ 0.0204 µM); MIC (E.coli CSH2 (RK1)): 0.0125 µg/mL (≈ 0.0204 µM); MIC (M.luteus ATCC9341): 6.25 µg/mL (≈ 10.2 µM); MIC (Ps.aeruginosa AK 109): 0.39 µg/mL (≈ 0.637 µM); MIC (Ps.maltophilia GN 12873): 25 µg/mL (≈ 40.8 µM)
C#CCON=C(C(=O)NC1C(=O)N2C(C(=O)[O-])=C(C[n+]3ccc4cc(O)c(O)cc4c3)CS[C@H]12)c1csc(N)n1 (stereo partly drawn) [Ex. 7, 7-[2-(2-aminothiazol-4-yl)-2-(2-propynyloxyimino)acetamido]-3-(6,7-dihydroxy-2-isoquinolio)methyl-3-cephem-4-carboxylate]	0.1 (≈ 0.172 µM)	0.05 (≈ 0.0861 µM)	6.25 (≈ 10.8 µM)	1.56 (≈ 2.69 µM)	0.2 (≈ 0.344 µM)	< 0.006	0.78 (≈ 1.34 µM)	0.2 (≈ 0.344 µM)	0.2 (≈ 0.344 µM)	< 0.006	< 0.006	1.56 (≈ 2.69 µM)	0.78 (≈ 1.34 µM)	0.2 (≈ 0.344 µM)	0.05 (≈ 0.0861 µM)	100 (≈ 172 µM)	0.78 (≈ 1.34 µM)	1.56 (≈ 2.69 µM)	50 (≈ 86.1 µM)	50 (≈ 86.1 µM)	MIC (S.marcescens IAM 1184; IAM1184, S.marcescens IAM 1184, Mueller Hinton agar, inoculum 10⁶ CFU/ml, 37°C, 16 hours): < 0.006 µg/mL; MIC (P.vulgaris No. 33; P.vulgaris No. 33 (β-Lactamase-producing strain), Mueller Hinton agar, inoculum 10⁶ CFU/ml, 37°C, 16 hours): 0.05 µg/mL (≈ 0.0861 µM); MIC (E.cloacae 963; Enterobacter cloacae, E.cloacae 963, Mueller Hinton agar, inoculum 10⁶ CFU/ml, 37°C, 16 hours): 0.0125 µg/mL (≈ 0.0215 µM); MIC (E.coli CSH2 (RK1)): < 0.006 µg/mL; MIC (M.luteus ATCC9341): 0.2 µg/mL (≈ 0.344 µM); MIC (Ps.aeruginosa AK 109): 0.78 µg/mL (≈ 1.34 µM); MIC (Ps.maltophilia GN 12873): > 100 µg/mL
